Assay results taken from US9101588B2, “Composition for lowering blood uric acid level” (TAISHO PHARMACEUTICAL CO., LTD., priority 2009, dated 2015).

Legend:
Assay type in all cases: in vivo, human
[1] = system: subjects thought to have lifestyle diseases; experiment: Test Example 1: randomized double blind test, change in uric acid level, powder of Example 1 vs placebo, 14 days; settings: for uric acid level degree changed MAX / uric acid level degree changed MEDIAN / uric acid level degree changed MIN / uric acid level degree changed MEAN: start to completion
Protocol: (§1) Forty subjects who were 20 years old or older and thought to have lifestyle diseases under the following conditions were grouped into 2 each consisting of 20 subjects. A placebo and the powder prepared in Example 1 were administered to the respective groups twice a day by 2.04 g (2000 mg in terms of taurine amount) in a single dose for 14 days. The change in the uric acid level was checked by a randomized double blind test.
Before this test was started, screening tests were conducted twice. Subjects who met all the conditions of Conditions 1 to 3 below in the first screening test were subjected to the second screening. Further, since the amount of taurine in the body seemed to influence the result of this test, subjects who met Condition 4 in addition to Conditions 1 to 3 in the second screening test were subjected to this test. In each administration group, the result was sub-grouped with a benchmark of the uric acid level of 7.0 mg/dL which served as the index for hyperuricemia. The uric acid levels were compared between the groups.
Incidentally, one case which was assigned to the taurine-administered group was terminated because another disease occurred before the administration was started.
Condition 1: LDL cholesterol was 140 mg/dL or above
Condition 2: triglyceride was 150 mg/dL or above but below 400 mg/dL
Condition 3: total cholesterol was 220 mg/dL or above
Condition 4: an amount of urinary taurine excreted (in urine collected for 24 hours) was 1500 μmol or below
In addition, each administration group was sub-grouped with a benchmark of the uric acid level of 7.0 mg/dL at the start, and the percentage of change in the uric acid level was compared in each group.

[2] = system: subjects of Test Examples 1 to 3; experiment: Taurine-administered cases of Test Examples 1 to 3 summed, degree of uric acid level changed; settings: for uric acid level degree changed MAX / uric acid level degree changed MEDIAN / uric acid level degree changed MIN / uric acid level degree changed MEAN: start to completion; for mean value of uric acid level decreased by / median of uric acid level decreased by: Table 6
Protocol: Next, degrees of serum uric acid levels changed before and after the administration in the taurine-administered cases of Test Examples 1 to 3 were lined up in the order of subjects having higher levels before the administration.
Moreover, the taurine-administered cases of Test Examples 1 to 3 were summed and sub-grouped with a benchmark of the uric acid level of 7.0 mg/dL at the start. Degrees of uric acid levels changed were compared between the sub-groups.

[3] = system: subjects thought to have hyperuricemia; experiment: Test Example 3: randomized double blind test, serum uric acid level and uric acid clearance value, powder of Example 1 vs placebo, 14 days
Protocol: as §1, with “Sixteen subjects” for “Forty subjects”, “have hyperuricemia” for “have lifestyle diseases”, “of 8” for “of 20”
Before this test was started, screening tests were conducted twice. Subjects who met the condition of Condition below in the first screening test were subjected to the second screening. Subjects who met Condition again in the second screening test were subjected to this test. Furthermore, in this test, in order to check the change in a uric acid clearance value that would influence the change in the uric acid level, the uric acid level and the uric acid clearance value were measured four times, that is, 1 hour before administration, 1 hour after administration, 2 hours after administration, and 3 hours after administration when the taurine administration was started as well as similarly four times when the administration was completed. It should be noted that in order to make conditions equal between when the administration was started and when completed, the subjects were stayed in a hospital 3 days and 2 nights before each measurement, and had the same meals.
Incidentally, one case which was assigned to the taurine-administered group was terminated because another disease occurred during the 14-day administration period.
Condition: serum uric acid level was 7.0 mg/dL or above but below 9.0 mg/dL
In addition, as in Test Examples 1 and 2, each administration group was sub-grouped with a benchmark of the uric acid level of 7.0 mg/dL at the start. The percentage of change in the uric acid level was compared in each group.
Next, the change (ratio of change) in the uric acid clearance value, when the administration was started, representing uric acid-excretion efficiency was compared between the administration groups.
Moreover, the change (ratio of change) in the uric acid clearance value when the administration was completed was also compared between the administration groups.

[4] = system: subjects thought to have hyperuricemia; experiment: as above; settings: 1 hour before administration at start vs 3 hours before administration at completion, 2000 mg taurine twice a day, FIG. 1
[5] = start level 7.0 mg/dL or above, 8 cases
[6] = start level 7.0 mg/dL or above, 8 cases, at completion (14 days)
[7] = start level 7.0 mg/dL or above, 8 cases, at start
[8] = start level below 7.0 mg/dL, 11 cases
[9] = start level below 7.0 mg/dL, 11 cases, at completion (14 days)
[10] = start level below 7.0 mg/dL, 11 cases, at start
[11] = subjects with uric acid level 7.0 mg/dL or above, Table 1
[12] = subjects with uric acid level below 7.0 mg/dL, Table 1
[13] = start level 7.0 mg/dL or above, 60 cases, at completion
[14] = start level 7.0 mg/dL or above, 60 cases, at start
[15] = start level 7.0 mg/dL or above, 60 cases
[16] = start level below 7.0 mg/dL, 87 cases, at completion
[17] = start level below 7.0 mg/dL, 87 cases, at start
[18] = start level below 7.0 mg/dL, 87 cases
[19] = subjects with uric acid level 7.0 mg/dL or above
[20] = subjects with uric acid level below 7.0 mg/dL
[21] = start level 7.0 mg/dL or above, 4 cases
[22] = start level below 7.0 mg/dL, 3 cases

SMILES: NCCS(=O)(=O)O [Taurine, aminoethylsulfonic acid]
- Change in uric acid level: subjects who did not show decrease [1, 5]: 0 (0.0) ( ): %
- Change in uric acid level: subjects who showed decrease [1, 5]: 8 (100.0) ( ): %
- uric acid level MAX [1, 6]: 8.3 mg/dL
- uric acid level MEAN [1, 6]: 7.36 mg/dL
- uric acid level MEDIAN [1, 6]: 7.50 mg/dL
- uric acid level MIN [1, 6]: 6.4 mg/dL
- uric acid level MAX [1, 7]: 9.1 mg/dL
- uric acid level MEDIAN [1, 7]: 8.30 mg/dL
- uric acid level MIN [1, 7]: 7.0 mg/dL
- uric acid level MEAN ([1]; start level 7.0 mg/dL or above, 8 cases, at start, 2000 mg taurine twice a day, 14 days): 8.11 mg/dL
- Change in uric acid level: subjects who showed decrease ([1]; start level 7.0 mg/dL or above, 8 cases, listed as taurine): 8 ( ): %
- uric acid level degree changed MAX [1, 5]: -0.3 mg/dL
- uric acid level degree changed MEDIAN [1, 5]: -0.70 mg/dL
- uric acid level degree changed MIN [1, 5]: -1.3 mg/dL
- uric acid level degree changed MEAN ([1]; start level 7.0 mg/dL or above, 8 cases, one-sample t-test P < 0.001): -0.75 mg/dL
- two-sample t-test estimation: difference in degree changed, taurine group vs placebo group ([1]; start level 7.0 mg/dL or above, 95% CI −1.42 to −0.15, P = 0.020): −0.78[−1.42 mg/dL
- Change in uric acid level: subjects who did not show decrease [1, 8]: 6 (54.5) ( ): %
- Change in uric acid level: subjects who showed decrease [1, 8]: 5 (45.5) ( ): %
- uric acid level MAX [1, 9]: 6.5 mg/dL
- uric acid level MEAN [1, 9]: 5.49 mg/dL
- uric acid level MEDIAN [1, 9]: 5.9 mg/dL
- uric acid level MIN [1, 9]: 1.1 mg/dL
- uric acid level MAX [1, 10]: 6.8 mg/dL
- uric acid level MEAN [1, 10]: 5.54 mg/dL
- uric acid level MEDIAN [1, 10]: 5.9 mg/dL
- uric acid level MIN [1, 10]: 0.8 mg/dL
- uric acid level degree changed MAX [1, 8]: 0.5 mg/dL
- uric acid level degree changed MEDIAN [1, 8]: 0.1 mg/dL
- uric acid level degree changed MIN [1, 8]: -0.9 mg/dL
- uric acid level degree changed MEAN ([1]; start level below 7.0 mg/dL, 11 cases, one-sample t-test P = 0.747): -0.05 mg/dL
- two-sample t-test estimation: difference in degree changed, taurine group vs placebo group ([1]; start level below 7.0 mg/dL, 95% CI −0.44 to 0.18, P = 0.386): −0.13[−0.44 mg/dL
- mean value of uric acid level decreased by [1, 11]: 0.75 mg/dL
- median of uric acid level decreased by [1, 11]: 0.70 mg/dL
- mean value of uric acid level decreased by [1, 12]: 0.05 mg/dL
- median of uric acid level increased by [1, 12]: 0.1 mg/dL
- two-sample t-test estimation: difference in degree changed between sub-groups ([1]; taurine group, 7.0 mg/dL or above vs below 7.0 mg/dL, 95% CI −1.09 to −0.31, P = 0.001): −0.70[−1.09 mg/dL
- two-sample t-test estimation: difference in degree changed between sub-groups ([2]; 7.0 mg/dL or above vs below 7.0 mg/dL, 95% CI −0.69 to −0.30, P < 0.001): −0.49[−0.69 mg/dL
- uric acid level after oral administration (conclusion) ([2]; results of Test Examples 1 to 3): significant decrease
- uric acid level MAX [2, 13]: 10.6 mg/dL
- uric acid level MEAN [2, 13]: 7.33 mg/dL
- uric acid level MEDIAN [2, 13]: 7.35 mg/dL
- uric acid level MIN [2, 13]: 4.6 mg/dL
- uric acid level MAX [2, 14]: 10.8 mg/dL
- uric acid level MEDIAN [2, 14]: 7.80 mg/dL
- uric acid level MIN [2, 14]: 7.0 mg/dL
- uric acid level MEAN ([2]; start level 7.0 mg/dL or above, 60 cases, at start, Test Examples 1 to 3 summed): 7.95 mg/dL
- uric acid level degree changed MAX [2, 15]: 0.7 mg/dL
- uric acid level degree changed MEDIAN [2, 15]: -0.60 mg/dL
- uric acid level degree changed MIN [2, 15]: -2.6 mg/dL
- uric acid level degree changed MEAN ([2]; start level 7.0 mg/dL or above, 60 cases, one-sample t-test P < 0.001): -0.62 mg/dL
- uric acid level MAX [2, 16]: 7.6 mg/dL
- uric acid level MEAN [2, 16]: 5.54 mg/dL
- uric acid level MEDIAN [2, 16]: 5.5 mg/dL
- uric acid level MIN [2, 16]: 1.1 mg/dL
- uric acid level MAX [2, 17]: 6.9 mg/dL
- uric acid level MEAN [2, 17]: 5.67 mg/dL
- uric acid level MEDIAN [2, 17]: 5.8 mg/dL
- uric acid level MIN [2, 17]: 0.8 mg/dL
- uric acid level degree changed MAX [2, 18]: 1.0 mg/dL
- uric acid level degree changed MEDIAN [2, 18]: -0.1 mg/dL
- uric acid level degree changed MIN [2, 18]: -1.6 mg/dL
- uric acid level degree changed MEAN ([2]; start level below 7.0 mg/dL, 87 cases, one-sample t-test P = 0.028): -0.13 mg/dL
- mean value of uric acid level decreased by [2, 19]: 0.62 mg/dL
- median of uric acid level decreased by [2, 19]: 0.60 mg/dL
- mean value of uric acid level decreased by [2, 20]: 0.13 mg/dL
- median of uric acid level decreased by [2, 20]: 0.1 mg/dL
- Change in uric acid level: subjects who did not show decrease [3, 21]: 0 (0.0) ( ): %
- Change in uric acid level: subjects who showed decrease [3, 21]: 4 (100.0) ( ): %
- Change in uric acid level: subjects who showed decrease ([3]; start level 7.0 mg/dL or above, 4 cases, listed as taurine): 4 ( ): %
- Change in uric acid level: subjects who did not show decrease [3, 22]: 1 (33.3) ( ): %
- Change in uric acid level: subjects who showed decrease [3, 22]: 2 (66.7) ( ): %
- uric acid clearance value, mean ratio of change (increase) ([3]; when the administration was completed, 2 hours after the administration, FIG. 3): ≥ 30%
- uric acid clearance value, mean ratio of change (increase) ([3]; when the administration was completed, 3 hours after the administration, FIG. 3): ≥ 20%
- uric acid clearance value, mean ratio of change (increase) ([3]; when the administration was started, 2 hours after the administration, FIG. 2): ≥ 40%
- uric acid clearance value, mean ratio of change (increase) ([3]; when the administration was started, 3 hours after the administration, FIG. 2): ≥ 30%
- mean value of serum uric acid level decreased by [4]: 0.53 mg/dL
